Measurements reported in patent US4658013A, “Analgesic and/or opiate antagonist tripeptide amides and processes for preparation and compositions thereof” (Sterling Drug Inc., priority 1983, dated 1987).
Non-standard residues stand in square brackets, D forms with d. No end group written: not given here.

Tested on: guinea pig ileum longitudinal muscle with adhering myenteric plexus
Experiment: Guinea pig ileum test (inhibition of electrically induced twitch of longitudinal muscle strips)
Format: cell-based
Conditions: ratio of IC50 of reference Met^5-enkephalin to IC50 of test compound in the same preparation, averaged (N=4); reference given as 100
Procedure: Adult male guinea pigs (Charles River, Hartley strain) weighing 300-500 g. are decapitated, and the terminal ileum is exposed by reflecting the overlying cecum, severed at the ileocecal juncture, and removed while cutting the mesenteric attachments to avoid excessive traction on the tissue. The ileum (about 30 cm. in length) is transferred to a beaker containing warm modified Krebs-Henseleit solution (118 mM sodium chloride, 4.75 mM potassium chloride, 2.54 mM calcium chloride, 1.19 mM potassium dihydrogen phosphate, 1.2 mM magnesium sulfate, 25 mM sodium bicarbonate, 11 mM glucose, 20 μM choline chloride and 0.125 μM pyrilamine maleate). The terminal (aboral) portion (about 10 cm, in length) is discarded, and segments (3-4 cm. in length) are cut from the remainder and gently slid onto a glass rod (5-6 mm. in diameter) and arranged so that the mesenteric attachment is in a straight line. A cotton swab moistened in the solution is then carefully used to separate the longitudinal muscle from the underlying circular muscle. The longitudinal muscle and adhering myenteric plexus is then gently removed from the remaining tissue with forceps.
Strips of thus prepared longitudinal muscle are mounted in a double-jacketed organ bath (5 ml.) under tension (1.0 g.), connected to isometric transducers (Grass FT 0.03), bathed in the modified Krebs-Henseleit solution described above, aerated with oxygen-carbon dioxide (95:5) and maintained at 37° C.
Stimulators (Grass S-44) are set to deliver repetitive, monophasic square wave field stimulation (supramaximal voltage, 0.10 Hz., 0.25 msec. duration) through platinum ring electrodes at the top and bottom of the bath. Regular contractions of the muscle, which result from electrically-induced liberation of acetylcholine from postganglionic parasympathetic nerves, are recorded on a polygraph (Grass model 5). Following tissue equilibration (45-60 min.) and repeated washing (every 10 min.) an aqueous solution of a reference or test compound is added to the bath in a microliter volume (1.25-250 μl) and reductions in muscle twitch height are recorded. More compound can be added […] first washing the preparation.
From the results a half-maximal inhibitory concentration (IC50) value for the compound is computed by regression analysis of a linear plot of logarithm of concentration against percent of inhibition of twitch height (probits). The ratio of the IC50 value of a reference compound to that of a test compound tested in the same preparation is the molar potency ratio. At least four preparations are tested simultaneously (N=4), and the resulting molar potency ratios are averaged.
The following results were obtained using the examples as test compounds and Met^5 -enkephalin as the reference compound: […]

“D,L-N-(3-methylbutyl)-2-[(L-tryosyl-D-alanyl)amino]benzenepentanamide [Example 7]” and `CC(C)CCNC(=O)[C@H](Cc1ccccc1)NC(=O)[C@@H](CN(C)C)NC(=O)[C@@H](N)Cc1ccc(O)cc1` [Example 3, L-tyrosyl-3-(dimethylamino)-D-alanyl-N-(3-methylbutyl)-L-phenylalaninamide] are the same in “Average Molar Potency Ratio” value: 5 for the first, 5 for the second.

Going from `CC(C)CCNC(=O)[C@H](Cc1ccccc1)NC(=O)[C@@H](C)NC(=O)[C@@H](N)Cc1ccc(O)cc1` [Example 1, L-tyrosyl-D-alanyl-N-(3-methylbutyl)-L-phenylalaninamide] to Met^5 -enkephalin [reference compound], the “Average Molar Potency Ratio” value rises from 25 to 100.

With `CC(C)CCN(CCc1ccccc1)C(=O)[C@H](Cc1ccccc1)NC(=O)[C@@H](C)NC(=O)[C@@H](N)Cc1ccc(O)cc1` [Example 2, L-tyrosyl-D-alanyl-N-(3-methylbutyl)-N-(2-phenylethyl)-L-phenylalaninamide] the “Average Molar Potency Ratio” value was 6.

Tested on: guinea pig ileum longitudinal muscle with adhering myenteric plexus
Experiment: not given
Conditions: Vavrek et al., Abstract P-76, 1981; cited from earlier work

In the case of Tyr-[dA]-Phe-NH2, the “activity as % of Met-enkephalin on the stimulated guinea pig ileum” value is given as 25%.
